Results from ChEMBL document CHEMBL2440027, “Further SAR studies on bicyclic basic merbarone analogues as potent antiproliferative agents” (Bioorg Med Chem, 2013).

Tests used:
MT4 = assay: Cytotoxicity against human MT4 cells; type: functional, cell-based
HeLa = assay: Cytotoxicity against human HeLa cells; type: functional, cell-based
MCF7 = assay: Cytotoxicity against human MCF7 cells; type: functional, cell-based
[1] = target: DNA topoisomerase 2-alpha (Homo sapiens, UniProt P11388); assay: Inhibition of human topoisomerase 2alpha-mediated relaxation of supercoiled pBR322 after 1 hr by ethidium bromide staining
DNA topoisomerase 2-alpha, sequence (P11388 whole entry): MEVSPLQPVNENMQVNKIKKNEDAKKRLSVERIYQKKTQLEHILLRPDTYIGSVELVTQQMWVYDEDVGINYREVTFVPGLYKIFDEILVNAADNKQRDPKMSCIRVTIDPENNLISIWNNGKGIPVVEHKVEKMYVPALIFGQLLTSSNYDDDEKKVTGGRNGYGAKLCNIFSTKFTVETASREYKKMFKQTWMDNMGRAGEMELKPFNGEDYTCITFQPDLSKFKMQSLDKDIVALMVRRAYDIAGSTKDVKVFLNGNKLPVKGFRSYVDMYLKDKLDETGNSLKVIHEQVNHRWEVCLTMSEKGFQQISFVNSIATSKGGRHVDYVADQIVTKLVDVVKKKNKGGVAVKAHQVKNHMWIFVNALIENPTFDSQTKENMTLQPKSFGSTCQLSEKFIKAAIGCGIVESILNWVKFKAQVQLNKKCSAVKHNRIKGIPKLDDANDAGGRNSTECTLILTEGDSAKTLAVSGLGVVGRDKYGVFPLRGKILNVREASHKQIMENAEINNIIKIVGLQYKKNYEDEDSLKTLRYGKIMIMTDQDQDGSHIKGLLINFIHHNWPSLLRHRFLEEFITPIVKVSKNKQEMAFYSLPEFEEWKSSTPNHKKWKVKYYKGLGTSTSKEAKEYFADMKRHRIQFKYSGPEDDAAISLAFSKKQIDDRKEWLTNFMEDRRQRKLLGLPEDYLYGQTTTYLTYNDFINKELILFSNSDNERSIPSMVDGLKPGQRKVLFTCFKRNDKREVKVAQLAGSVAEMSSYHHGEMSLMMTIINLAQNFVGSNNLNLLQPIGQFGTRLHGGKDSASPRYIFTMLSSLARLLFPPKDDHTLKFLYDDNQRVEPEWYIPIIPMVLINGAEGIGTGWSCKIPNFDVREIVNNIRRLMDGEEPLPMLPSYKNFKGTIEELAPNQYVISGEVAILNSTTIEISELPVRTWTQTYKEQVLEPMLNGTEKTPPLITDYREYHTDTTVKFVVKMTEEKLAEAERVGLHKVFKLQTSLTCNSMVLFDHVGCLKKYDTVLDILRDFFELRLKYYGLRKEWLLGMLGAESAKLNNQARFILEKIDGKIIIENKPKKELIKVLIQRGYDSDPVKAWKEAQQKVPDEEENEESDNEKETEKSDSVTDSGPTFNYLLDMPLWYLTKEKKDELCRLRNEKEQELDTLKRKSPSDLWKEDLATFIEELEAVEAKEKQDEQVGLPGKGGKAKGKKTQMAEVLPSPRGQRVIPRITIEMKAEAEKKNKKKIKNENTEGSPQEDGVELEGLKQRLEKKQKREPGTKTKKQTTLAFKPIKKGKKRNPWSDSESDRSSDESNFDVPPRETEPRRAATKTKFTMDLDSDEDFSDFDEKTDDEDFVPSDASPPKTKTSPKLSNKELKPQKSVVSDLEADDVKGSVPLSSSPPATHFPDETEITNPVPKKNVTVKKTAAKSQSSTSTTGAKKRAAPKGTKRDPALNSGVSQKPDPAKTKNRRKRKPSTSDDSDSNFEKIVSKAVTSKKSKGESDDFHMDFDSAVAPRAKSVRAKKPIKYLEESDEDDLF

CCN(CC)CCSc1nc2c(c(=N)n1-c1ccccc1)c(=S)n(-c1ccccc1)c(=S)n2-c1ccccc1
IC50 (MT4): 3.3 µM

CN1CCN(c2nc3c(c(=N)n2-c2ccccc2)c(=S)n(-c2ccccc2)c(=S)n3-c2ccccc2)CC1
IC50 (HeLa; Homo sapiens, HeLa): > 50 µM
IC50 (MCF7): > 50 µM
IC50 (MT4): > 100 µM

N=c1c2c(=S)n(-c3ccccc3)c(=S)n(-c3ccccc3)c2nc(NNc2ccccc2)n1-c1ccccc1
IC50 (MT4): > 100 µM

CCN(CC)CCNc1nc2c(c(=N)n1-c1ccccc1)c(=S)n(-c1ccccc1)c(=S)n2-c1ccccc1
IC50 [1]: > 100 µM
IC50 (HeLa; Homo sapiens, HeLa): 16.9 µM
IC50 (MCF7): 11.1 µM
IC50 (MT4): 2.5 µM

N=c1c2c(=S)n(-c3ccccc3)c(=S)n(-c3ccccc3)c2nc(SCCN2CCCCC2)n1-c1ccccc1
IC50 (MT4): 3.6 µM

N=c1c2c(=S)n(-c3ccccc3)c(=S)n(-c3ccccc3)c2nc(NCCc2ccc(Cl)cc2)n1-c1ccccc1 [listing 1 of 2 here]
IC50 [1]: 2 µM
IC50 (HeLa; Homo sapiens, HeLa): 5.6 µM
IC50 (MCF7): 25.6 µM

N=c1c2c(=S)n(-c3ccccc3)c(=S)n(-c3ccccc3)c2nc(NCc2cccnc2)n1-c1ccccc1 [listing 1 of 2 here]
IC50 [1]: 3 µM
IC50 (HeLa; Homo sapiens, HeLa): 14.6 µM
IC50 (MCF7): 24.3 µM

CN1CCN(CCCNc2nc3c(c(=N)n2-c2ccccc2)c(=S)n(-c2ccccc2)c(=S)n3-c2ccccc2)CC1 [listing 1 of 2 here]
IC50 [1]: > 35 µM
IC50 (HeLa; Homo sapiens, HeLa): 8.5 µM
IC50 (MCF7): 5.7 µM

N=c1c2c(=S)n(-c3ccccc3)c(=S)n(-c3ccccc3)c2nc(NCCN2CCCCC2)n1-c1ccccc1 [listing 1 of 2 here]
IC50 [1]: 3 µM
IC50 (HeLa; Homo sapiens, HeLa): 5.2 µM
IC50 (MCF7): 26.7 µM

CCCCN(CCCC)CCCNc1nc2c(c(=N)n1-c1ccccc1)c(=S)n(-c1ccccc1)c(=S)n2-c1ccccc1
IC50 [1]: > 32 µM
IC50 (HeLa; Homo sapiens, HeLa): 2 µM
IC50 (MCF7): < 1 µM

CN(C)CCCNc1nc2c(c(=N)n1-c1ccccc1)c(=S)n(-c1ccccc1)c(=S)n2-c1ccccc1
IC50 [1]: > 100 µM
IC50 (HeLa; Homo sapiens, HeLa): 7.8 µM
IC50 (MCF7): 5.5 µM
IC50 (MT4): 1.7 µM

N=c1c2c(=S)n(-c3ccccc3)c(=S)n(-c3ccccc3)c2nc(NCCN2CCCCC2)n1-c1ccccc1 [listing 2 of 2 here]
IC50 (MT4): 1.7 µM

CN1CCN(CCCNc2nc3c(c(=N)n2-c2ccccc2)c(=S)n(-c2ccccc2)c(=S)n3-c2ccccc2)CC1 [listing 2 of 2 here]
IC50 (MT4): 2 µM

N=c1c2c(=S)n(-c3ccccc3)c(=S)n(-c3ccccc3)c2nc(NCc2ccccn2)n1-c1ccccc1
IC50 [1]: > 100 µM
IC50 (HeLa; Homo sapiens, HeLa): > 50 µM
IC50 (MCF7): > 50 µM
IC50 (MT4): 7 µM

N=c1c2c(=S)n(-c3ccccc3)c(=S)n(-c3ccccc3)c2nc(NCc2cccnc2)n1-c1ccccc1 [listing 2 of 2 here]
IC50 [1]: 3 µM
IC50 (HeLa; hela): 12.6 µM
IC50 (MT4): > 100 µM

N=c1c2c(=S)n(-c3ccccc3)c(=S)n(-c3ccccc3)c2nc(NCCc2ccc(Cl)cc2)n1-c1ccccc1 [listing 2 of 2 here]
IC50 [1]: 2 µM
IC50 (HeLa; hela): 5.9 µM
IC50 (MT4): 2.4 µM

N=c1c2c(=S)n(-c3ccccc3)c(=S)n(-c3ccccc3)c2nc(NCCc2ccccn2)n1-c1ccccc1
IC50 [1]: > 100 µM
IC50 (HeLa; Homo sapiens, HeLa): 10.5 µM
IC50 (MCF7): 17.3 µM
IC50 (MT4): 8 µM

N=c1c2c(=S)n(-c3ccccc3)c(=S)n(-c3ccccc3)c2nc(NCCc2ccncc2)n1-c1ccccc1
IC50 [1]: > 100 µM
IC50 (HeLa; Homo sapiens, HeLa): 15.4 µM
IC50 (MCF7): 17.8 µM
IC50 (MT4): 16 µM

N=c1c2c(=S)n(-c3ccccc3)c(=S)n(-c3ccccc3)c2nc(NCCCn2ccnc2)n1-c1ccccc1
IC50 (HeLa; Homo sapiens, HeLa): > 100 µM
IC50 (MCF7): > 100 µM
IC50 (MT4): 8 µM

O=C1NC(=S)NC(=O)C1C(=O)Nc1ccccc1 [MERBARONE]
IC50 [1]: 32 µM
IC50 (HeLa; Homo sapiens, HeLa): 43.8 µM
IC50 (MCF7): 61.6 µM
IC50 (MT4): 12 µM
